IC50 data for 1 compound are collected here from EP0728482A2, “Use of hcp specific compounds to enhance erythropoiesis” (SMITHKLINE BEECHAM CORPORATION, priority 1995, dated 1996).

This experiment addresses T1, human lck SH2 domain (Homo sapiens, UniProt P06239).
T1 construct: made in house; host or cells: E. coli AR120
The experiment in a line: ELISA-based SH2 domain / pY peptide binding assay, lck SH2 domain. The conditions noted are these: inhibition of binding of 0.1 uM biotinylated pY peptide to SH2 domain fusion protein. The protocol:
The inhibitory activity of compounds at the different human SH2 domains was determined in vitro using SH2 domains expressed as fusion proteins in E. coli. The SH2 domains used herein were the human forms of the src SH2 domain, Grb2 SH2 domain, lck SH2 domain, fyn SH2 domain, SH-PTP2 SH2 domain, p85 SH2 domain and hcp SH2 domain.
The fusion proteins containing the src, lck and hcp SH2 domains were expressed as the general sequence: DET1-DET2-spacer-ek-SH2, where DET1, DET2, spacer, ek and SH2 are as described below. DET1 ("defined epitope tag 1") (SEQ ID NO: 1) is an 11 amino acid sequence found in the Human Immunodeficiency Virus Type 1 (HIV-1) envelope protein gp120 (or gp160). Monoclonal antibodies to various epitopes of HIV-1 gp120 (or gp 160) are known in the art, see, for example U.S. Patent 5,166,050. One preferred example is monoclonal antibody 178.1 (see, e.g., Thiriart et al., J. Immunol., 143:1832-1836 (1989)), which was prepared by immunization of mice with a yeast-expressed HIV-1 gp160 molecule from strain BH10 (Ratner et al., Nature, 313:277-284 (1985)). This tag was used for detection of expression (by Western blot), for purification of the protein (by affinity chromatography), and for configuring assays in which the fusion protein was captured or immobilized using the 178.1 antibody. […]
(ELISA stands for enzyme-linked immunosorbent assay.)

T1 sequence (P06239 127-224 limits assumed): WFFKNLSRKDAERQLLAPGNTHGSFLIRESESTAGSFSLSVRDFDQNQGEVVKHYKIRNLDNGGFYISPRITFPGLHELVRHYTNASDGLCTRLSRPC

The term IC50 denotes the concentration at which inhibition is half-maximal. Higher therefore signals weaker potency. `CCCCCCNC(=O)[C@H]1CC[C@H](CNC(=O)c2ccc(C(=O)c3ccc(C(=O)O)cc3)cc2)CC1` [Compound 6, 4-carboxy-benzophenone-4-carboxamido-trans-4-methyl-cyclohexyl-N-hexyl carboxamide] came in with an IC50 above 300 µM.
